Patent US11267811B2, “Small molecule inhibitors of galectin-3” (BRISTOL-MYERS SQUIBB COMPANY, priority 2017, dated 2022)

Target: His-tagged recombinant human Gal-3 (hGal-3) (Homo sapiens (Human), UniProt P17931)
Assay: Gal-3 HTRF assay (His-tagged hGal-3 binding to B-ASF);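 also: compounds preincubated 30 min with hGal-3, then 1 h with B-ASF, detection via terbium anti-His antibody and streptavidin d2. Control with B-ASF counts as full signal, omitting B-ASF as background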
Conditions: HTRF, hGal-3 15 nM, B-ASF 15 nM; read-out: hGal-3 IC50

Sequence of His-tagged recombinant human Gal-3 (hGal-3) (P17931 whole entry): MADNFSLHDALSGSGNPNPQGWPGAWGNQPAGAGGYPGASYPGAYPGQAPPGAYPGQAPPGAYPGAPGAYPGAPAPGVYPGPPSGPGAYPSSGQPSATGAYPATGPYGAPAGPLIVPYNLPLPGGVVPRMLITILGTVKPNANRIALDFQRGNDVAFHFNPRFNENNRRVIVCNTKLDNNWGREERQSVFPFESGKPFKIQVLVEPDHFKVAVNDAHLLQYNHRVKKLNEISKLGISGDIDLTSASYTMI

IC50	SMILES
670 nM	NS(=O)(=O)c1ccc(-n2cnnc2[C@@H]2O[C@H](CO)[C@H](O)[C@H](n3cc(-c4cc(F)c(F)c(F)c4)nn3)[C@H]2O)cc1 [Example 116]
1460 nM	OC[C@H]1O[C@@H](c2nncn2-c2ccc(-n3ccnc3)cc2)[C@H](O)[C@@H](n2cc(-c3cc(F)c(F)c(F)c3)nn2)[C@H]1O [Example 117]
160 nM	OC[C@H]1O[C@@H](c2nncn2-c2cc(Cl)cc(C(F)(F)F)c2)[C@H](O)[C@@H](n2cc(-c3cc(F)c(F)c(F)c3)nn2)[C@H]1O [Example 118]
2790 nM	OC[C@H]1O[C@@H](c2nncn2Cc2ccc(Cl)c(Cl)c2)[C@H](O)[C@@H](n2cc(-c3cc(F)c(F)c(F)c3)nn2)[C@H]1O [Example 119]
30 nM	OC[C@H]1O[C@@H](c2nncn2-c2ccc3ncsc3c2)[C@H](O)[C@@H](n2cc(-c3cc(F)c(F)c(F)c3)nn2)[C@H]1O [Example 120]
260 nM	O=C1CCc2cc(-n3cnnc3[C@@H]3O[C@H](CO)[C@H](O)[C@H](n4cc(-c5cc(F)c(F)c(F)c5)nn4)[C@H]3O)ccc2N1 [Example 121]
100 nM	OC[C@H]1O[C@@H](c2nncn2-c2cnc3ccccc3c2)[C@H](O)[C@@H](n2cc(-c3cc(F)c(F)c(F)c3)nn2)[C@H]1O [Example 123]
400 nM	OC[C@H]1O[C@@H](c2nncn2-c2ccc3nccnc3c2)[C@H](O)[C@@H](n2cc(-c3cc(F)c(F)c(F)c3)nn2)[C@H]1O [Example 124]
270 nM	OC[C@H]1O[C@@H](c2nncn2-c2ccc3ccncc3c2)[C@H](O)[C@@H](n2cc(-c3cc(F)c(F)c(F)c3)nn2)[C@H]1O [Example 126]
1280 nM	OC[C@H]1O[C@@H](c2nncn2Cc2cccs2)[C@H](O)[C@@H](n2cc(-c3cc(F)c(F)c(F)c3)nn2)[C@H]1O [Example 127]
310 nM	CS(=O)(=O)c1cccc(-n2cnnc2[C@@H]2O[C@H](CO)[C@H](O)[C@H](n3cc(-c4cc(F)c(F)c(F)c4)nn3)[C@H]2O)c1 [Example 128]
600 nM	CS(=O)(=O)c1cc(-n2cnnc2[C@@H]2O[C@H](CO)[C@H](O)[C@H](n3cc(-c4cc(F)c(F)c(F)c4)nn3)[C@H]2O)ccc1F [Example 129]
320 nM	OC[C@H]1O[C@@H](c2nncn2Cc2nc3ccccc3s2)[C@H](O)[C@@H](n2cc(-c3cc(F)c(F)c(F)c3)nn2)[C@H]1O [Example 130]
100 nM	OC[C@H]1O[C@@H](c2nncn2-c2ccc(Cl)c(Cl)c2)[C@H](O)[C@@H](n2cc(-c3cc(F)c(F)c(F)c3)nn2)[C@H]1O [Example 131, (2S,3R,4R,5R,6R)-2-(4-(3,4-dichlorophenyl)-4H-1,2,4-triazol-3-yl)-6-(hydroxymethyl)-4-(4-(3,4,5-trifluorophenyl)-1H-1,2,3-triazol-1-yl)tetrahydro-2H-pyran-3,5-diol]
20 nM	Cc1nc2ccc(-n3cnnc3[C@@H]3O[C@H](CO)[C@H](O)[C@H](n4cc(-c5cc(F)c(F)c(F)c5)nn4)[C@H]3O)cc2s1 [Example 132]
200 nM	COc1cc(-n2cnnc2[C@@H]2O[C@H](CO)[C@H](O)[C@H](n3cc(-c4cc(F)c(F)c(F)c4)nn3)[C@H]2O)ccn1 [Example 133]
570 nM	COc1cccc(-n2cnnc2[C@@H]2O[C@H](CO)[C@H](O)[C@H](n3cc(-c4cc(F)c(F)c(F)c4)nn3)[C@H]2O)n1 [Example 134]
30 nM	OC[C@H]1O[C@@H](c2nncn2-c2cc(Cl)ccc2Cl)[C@H](O)[C@@H](n2cc(-c3cc(F)c(F)c(F)c3)nn2)[C@H]1O [Example 135]
310 nM	Cn1c(=O)sc2cc(-n3cnnc3[C@@H]3O[C@H](CO)[C@H](O)[C@H](n4cc(-c5cc(F)c(F)c(F)c5)nn4)[C@H]3O)ccc21 [Example 136]
80 nM	Cc1nc2cc(F)c(-n3cnnc3[C@@H]3O[C@H](CO)[C@H](O)[C@H](n4cc(-c5cc(F)c(F)c(F)c5)nn4)[C@H]3O)cc2s1 [Example 137]
40 nM	Cc1ncc(Cl)cc1-n1cnnc1[C@@H]1O[C@H](CO)[C@H](O)[C@H](n2cc(-c3cc(F)c(F)c(F)c3)nn2)[C@H]1O [Example 138]
260 nM	Cc1nc2cccc(-n3cnnc3[C@@H]3O[C@H](CO)[C@H](O)[C@H](n4cc(-c5cc(F)c(F)c(F)c5)nn4)[C@H]3O)c2s1 [Example 139]
130 nM	OC[C@H]1O[C@@H](c2nncn2-c2cc(F)cc(Cl)c2)[C@H](O)[C@@H](n2cc(-c3cc(F)c(F)c(F)c3)nn2)[C@H]1O [Example 140]
130 nM	OC[C@H]1O[C@@H](c2nncn2-c2ccc(N3CCNCC3)c(Cl)c2)[C@H](O)[C@@H](n2cc(-c3cc(F)c(F)c(F)c3)nn2)[C@H]1O [Example 141, (2S,3R,4R,5R,6R)-2-(4-(3-chloro-4-(piperazin-1-yl)phenyl)-4H-1,2,4-triazol-3-yl)-6-(hydroxymethyl)-4-(4-(3,4,5-trifluorophenyl)-1H-1,2,3-triazol-1-yl)tetrahydro-2H-pyran-3,5-diol]
410 nM	Cc1nc2cc(-n3cnnc3[C@@H]3O[C@H](CO)[C@H](O)[C@H](n4cc(-c5cc(F)c(F)c(F)c5)nn4)[C@H]3O)ccc2s1 [Example 143]
230 nM	COc1ccc(-n2cnnc2[C@@H]2O[C@H](CO)[C@H](O)[C@H](n3cc(-c4cc(F)c(F)c(F)c4)nn3)[C@H]2O)cc1Cl [Example 145]

IC50	SMILES
50 nM	CSc1cccc(-n2cnnc2[C@@H]2O[C@H](CO)[C@H](O)[C@H](n3cc(-c4cc(F)c(F)c(F)c4)nn3)[C@H]2O)c1 [Example 146]
60 nM	CSc1cc(Cl)cc(-n2cnnc2[C@@H]2O[C@H](CO)[C@H](O)[C@H](n3cc(-c4cc(F)c(F)c(F)c4)nn3)[C@H]2O)c1 [Example 147]
80 nM	Cc1nc2c(Cl)cc(-n3cnnc3[C@@H]3O[C@H](CO)[C@H](O)[C@H](n4cc(-c5cc(F)c(F)c(F)c5)nn4)[C@H]3O)cc2s1 [Example 148]
160 nM	COc1cccc(-n2cnnc2[C@@H]2O[C@H](CO)[C@H](O)[C@H](n3cc(-c4cc(F)c(F)c(F)c4)nn3)[C@H]2O)c1 [Example 152]
140 nM	N#Cc1cccc(-n2cnnc2[C@@H]2O[C@H](CO)[C@H](O)[C@H](n3cc(-c4cc(F)c(F)c(F)c4)nn3)[C@H]2O)c1 [Example 153]
80 nM	OC[C@H]1O[C@@H](c2nncn2-c2cccc(F)c2)[C@H](O)[C@@H](n2cc(-c3cc(F)c(F)c(F)c3)nn2)[C@H]1O [Example 154]
150 nM	Cc1cccc(-n2cnnc2[C@@H]2O[C@H](CO)[C@H](O)[C@H](n3cc(-c4cc(F)c(F)c(F)c4)nn3)[C@H]2O)c1 [Example 155]
50 nM	OC[C@H]1O[C@@H](c2nncn2-c2ccc(F)c(Cl)c2)[C@H](O)[C@@H](n2cc(-c3cc(F)c(F)c(F)c3)nn2)[C@H]1O [Example 156]
2150 nM	OC[C@H]1O[C@@H](c2nncn2Cc2nccs2)[C@H](O)[C@@H](n2cc(-c3cc(F)c(F)c(F)c3)nn2)[C@H]1O [Example 158]
840 nM	CC(=O)Nc1ccc(-n2cnnc2[C@@H]2O[C@H](CO)[C@H](O)[C@H](n3cc(-c4cc(F)c(F)c(F)c4)nn3)[C@H]2O)cc1O [Example 159]
330 nM	Cc1nc2ccc(-n3cnnc3[C@@H]3O[C@H](CO)[C@H](O)[C@H](n4cc(-c5cc(F)c(F)c(F)c5)nn4)[C@H]3O)cc2[nH]1 [Example 160]
220 nM	COC(=O)c1cc2ccc(-n3cnnc3[C@@H]3O[C@H](CO)[C@H](O)[C@H](n4cc(-c5cc(F)c(F)c(F)c5)nn4)[C@H]3O)cc2s1 [Example 163]
630 nM	OC[C@H]1O[C@@H](c2nncn2-c2ccc3cn[nH]c3c2)[C@H](O)[C@@H](n2cc(-c3cc(F)c(F)c(F)c3)nn2)[C@H]1O [Example 164]
930 nM	OC[C@H]1O[C@@H](c2nncn2-c2cccc3cc[nH]c23)[C@H](O)[C@@H](n2cc(-c3cc(F)c(F)c(F)c3)nn2)[C@H]1O [Example 165]
150 nM	Cn1ncc2ccc(-n3cnnc3[C@@H]3O[C@H](CO)[C@H](O)[C@H](n4cc(-c5cc(F)c(F)c(F)c5)nn4)[C@H]3O)cc21 [Example 166]
300 nM	Cn1cc2ccc(-n3cnnc3[C@@H]3O[C@H](CO)[C@H](O)[C@H](n4cc(-c5cc(F)c(F)c(F)c5)nn4)[C@H]3O)cc2n1 [Example 167]
500 nM	Cc1nc2cc(-n3cnnc3[C@@H]3O[C@H](CO)[C@H](O)[C@H](n4cc(-c5cc(F)c(F)c(F)c5)nn4)[C@H]3O)ccc2n1C [Example 168]
280 nM	Cc1nc2ccc(-n3cnnc3[C@@H]3O[C@H](CO)[C@H](O)[C@H](n4cc(-c5cc(F)c(F)c(F)c5)nn4)[C@H]3O)cc2n1C [Example 169]
2000 nM	OCCn1cnnc1[C@@H]1O[C@H](CO)[C@H](O)[C@H](n2cc(-c3cc(F)c(F)c(F)c3)nn2)[C@H]1O [Example 170, (2S,3R,4R,5R,6R)-2-(4-(2-hydroxyethyl)-4H-1,2,4-triazol-3-yl)-6-(hydroxymethyl)-4-(4-(3,4,5-trifluorophenyl)-1H-1,2,3-triazol-1-yl)tetrahydro-2H-pyran-3,5-diol]
2020 nM	OC[C@H]1O[C@@H](c2ncnn2[C@@H]2CCCC[C@H]2O)[C@H](O)[C@@H](n2cc(-c3cc(F)c(F)c(F)c3)nn2)[C@H]1O [Example 171]
3840 nM	OC[C@H]1O[C@@H](c2ncnn2C2CCNCC2)[C@H](O)[C@@H](n2cc(-c3cc(F)c(F)c(F)c3)nn2)[C@H]1O [Example 172]
180 nM	OC[C@H]1O[C@@H](c2ncnn2-c2cccc(Cl)c2)C[C@@H](n2cc(-c3cc(F)c(F)c(F)c3)nn2)[C@H]1O [Example 173, (2R,3R,4R,6R)-6-(1-(3-chlorophenyl)-1H-1,2,4-triazol-5-yl)-2-(hydroxymethyl)-4-(4-(3,4,5-trifluorophenyl)-1H-1,2,3-triazol-1-yl)tetrahydro-2H-pyran-3-ol]
300 nM	OC[C@H]1O[C@@H](c2ncnn2-c2ccc(Cl)c(Cl)c2)C[C@@H](n2cc(-c3cc(F)c(F)c(F)c3)nn2)[C@H]1O [Example 174]
650 nM	NC(=O)c1cccc(-n2ncnc2[C@H]2C[C@@H](n3cc(-c4cc(F)c(F)c(F)c4)nn3)[C@@H](O)[C@@H](CO)O2)c1 [Example 175]
40 nM	Cc1nc2ccc(-n3ncnc3[C@H]3C[C@@H](n4cc(-c5cc(F)c(F)c(F)c5)nn4)[C@@H](O)[C@@H](CO)O3)cc2s1 [Example 176]
